Activity calls are given as the source filed them. The rule behind the calls is not given here.
Columns and labels:
[1] = target: T1, Dual specificity mitogen-activated protein kinase kinase 6 (Homo sapiens) (UniProt P52564); test: Inhibition of MAP2K6 Lys1 labeling site in human Huh-7 cell lysate at 1 uM by KiNativ Profiling analysis relative to control; format: subcellular
T1 sequence (whole entry): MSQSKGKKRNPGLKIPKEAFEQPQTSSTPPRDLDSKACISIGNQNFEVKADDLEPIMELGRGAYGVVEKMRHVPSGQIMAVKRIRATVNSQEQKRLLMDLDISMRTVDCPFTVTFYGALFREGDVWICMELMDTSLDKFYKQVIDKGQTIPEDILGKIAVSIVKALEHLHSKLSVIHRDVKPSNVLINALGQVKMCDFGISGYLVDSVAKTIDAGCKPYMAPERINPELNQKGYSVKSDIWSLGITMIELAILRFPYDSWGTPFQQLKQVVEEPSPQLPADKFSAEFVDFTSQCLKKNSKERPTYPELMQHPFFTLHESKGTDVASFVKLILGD

[2] = target: Ribosomal protein S6 kinase alpha-4 (Homo sapiens) (UniProt O75676); test: Inhibition of MSK2 domain1 ATP labeling site in human Huh-7 cell lysate at 1 uM by KiNativ Profiling analysis relative to control; format: subcellular
Sequence of Ribosomal protein S6 kinase alpha-4 (Homo sapiens) (O75676 whole entry, looked up, the tested form may be a part): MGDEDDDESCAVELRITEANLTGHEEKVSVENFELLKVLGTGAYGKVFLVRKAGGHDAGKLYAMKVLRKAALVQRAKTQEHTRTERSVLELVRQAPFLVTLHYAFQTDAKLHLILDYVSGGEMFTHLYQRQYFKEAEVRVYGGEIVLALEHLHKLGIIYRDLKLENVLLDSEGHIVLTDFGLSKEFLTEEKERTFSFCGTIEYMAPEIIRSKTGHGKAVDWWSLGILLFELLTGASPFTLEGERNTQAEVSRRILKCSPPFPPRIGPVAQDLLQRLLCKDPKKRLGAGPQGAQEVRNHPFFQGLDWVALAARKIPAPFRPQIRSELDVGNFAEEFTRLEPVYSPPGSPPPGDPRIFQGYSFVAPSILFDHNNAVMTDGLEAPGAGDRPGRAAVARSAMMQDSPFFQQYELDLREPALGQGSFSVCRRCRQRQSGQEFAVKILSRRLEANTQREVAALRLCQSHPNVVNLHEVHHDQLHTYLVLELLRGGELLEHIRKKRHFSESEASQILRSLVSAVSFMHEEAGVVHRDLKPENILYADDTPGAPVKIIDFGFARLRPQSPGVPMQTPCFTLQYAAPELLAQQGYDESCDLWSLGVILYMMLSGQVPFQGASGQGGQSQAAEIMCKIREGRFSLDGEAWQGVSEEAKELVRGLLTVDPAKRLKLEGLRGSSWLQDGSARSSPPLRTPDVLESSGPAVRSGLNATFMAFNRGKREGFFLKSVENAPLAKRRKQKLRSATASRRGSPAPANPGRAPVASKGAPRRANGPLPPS

[3] = target: Rho-associated protein kinase 1 (Homo sapiens) (UniProt Q13464); test: Inhibition of ROCK1 Lys2 labeling site in human Huh-7 cells at 1 uM by KiNativ Profiling analysis relative to control; format: cell-based
[4] = target: Maternal embryonic leucine zipper kinase (Homo sapiens) (UniProt Q14680); test: Inhibition of MELK Lys2 labeling site in human A-375 cells at 0.05 uM by KiNativ Profiling analysis relative to control; format: cell-based
Sequence of Maternal embryonic leucine zipper kinase (Homo sapiens) (Q14680 whole entry, looked up): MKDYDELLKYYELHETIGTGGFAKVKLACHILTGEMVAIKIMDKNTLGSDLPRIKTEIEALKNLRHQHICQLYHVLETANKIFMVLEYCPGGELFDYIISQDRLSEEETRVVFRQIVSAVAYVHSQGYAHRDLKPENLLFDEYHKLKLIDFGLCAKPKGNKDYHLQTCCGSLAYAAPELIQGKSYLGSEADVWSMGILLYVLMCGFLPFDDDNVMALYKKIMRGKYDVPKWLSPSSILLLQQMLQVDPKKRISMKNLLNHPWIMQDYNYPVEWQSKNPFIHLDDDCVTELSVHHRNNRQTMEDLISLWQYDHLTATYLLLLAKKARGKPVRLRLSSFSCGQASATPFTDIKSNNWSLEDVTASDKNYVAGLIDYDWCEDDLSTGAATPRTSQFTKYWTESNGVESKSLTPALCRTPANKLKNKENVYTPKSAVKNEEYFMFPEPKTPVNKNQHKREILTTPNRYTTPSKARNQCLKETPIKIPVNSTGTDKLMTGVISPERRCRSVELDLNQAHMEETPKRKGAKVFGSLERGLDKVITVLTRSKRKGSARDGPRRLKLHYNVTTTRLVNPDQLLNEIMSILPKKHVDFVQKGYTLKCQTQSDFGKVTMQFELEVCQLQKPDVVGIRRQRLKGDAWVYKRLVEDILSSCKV

[5] = target: Serine/threonine-protein kinase B-raf (Homo sapiens, UniProt P15056); test: Inhibition of BRAF (unknown origin) at 10 uM by Ambit Kinomescan binding assay relative to control
Sequence of Serine/threonine-protein kinase B-raf (P15056 whole entry): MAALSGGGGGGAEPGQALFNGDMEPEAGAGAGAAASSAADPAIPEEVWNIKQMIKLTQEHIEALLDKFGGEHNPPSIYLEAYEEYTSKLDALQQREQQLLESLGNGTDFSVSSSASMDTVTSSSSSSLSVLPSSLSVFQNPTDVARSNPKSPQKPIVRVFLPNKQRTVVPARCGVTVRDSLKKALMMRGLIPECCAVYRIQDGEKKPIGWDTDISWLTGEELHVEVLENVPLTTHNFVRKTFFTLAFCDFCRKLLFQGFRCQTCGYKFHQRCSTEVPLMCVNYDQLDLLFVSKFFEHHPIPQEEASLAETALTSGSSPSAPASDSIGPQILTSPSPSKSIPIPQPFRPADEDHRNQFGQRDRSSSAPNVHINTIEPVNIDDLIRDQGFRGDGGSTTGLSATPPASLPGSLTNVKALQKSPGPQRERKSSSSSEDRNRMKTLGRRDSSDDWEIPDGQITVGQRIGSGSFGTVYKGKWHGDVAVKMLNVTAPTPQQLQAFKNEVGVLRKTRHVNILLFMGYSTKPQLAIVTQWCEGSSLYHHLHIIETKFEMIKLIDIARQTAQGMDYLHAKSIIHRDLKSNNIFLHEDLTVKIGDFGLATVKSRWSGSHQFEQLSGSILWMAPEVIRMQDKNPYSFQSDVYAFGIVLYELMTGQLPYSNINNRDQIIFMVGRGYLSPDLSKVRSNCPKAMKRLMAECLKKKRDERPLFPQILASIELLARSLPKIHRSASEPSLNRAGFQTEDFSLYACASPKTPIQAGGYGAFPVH

[6] = target: Serine/threonine-protein kinase tousled-like 2 (Homo sapiens) (UniProt Q86UE8); test: Inhibition of TLK2 (unknown origin) at 10 uM by Ambit Kinomescan binding assay
[7] = target: Mitogen-activated protein kinase 7 (Homo sapiens) (UniProt Q13164); test: Inhibition of Erk5 K2 labeling site in human Huh-7 cells at 10 uM by KiNativ Profiling analysis relative to control; format: cell-based
Sequence of Mitogen-activated protein kinase 7 (Homo sapiens) (Q13164 2-816 limits assumed): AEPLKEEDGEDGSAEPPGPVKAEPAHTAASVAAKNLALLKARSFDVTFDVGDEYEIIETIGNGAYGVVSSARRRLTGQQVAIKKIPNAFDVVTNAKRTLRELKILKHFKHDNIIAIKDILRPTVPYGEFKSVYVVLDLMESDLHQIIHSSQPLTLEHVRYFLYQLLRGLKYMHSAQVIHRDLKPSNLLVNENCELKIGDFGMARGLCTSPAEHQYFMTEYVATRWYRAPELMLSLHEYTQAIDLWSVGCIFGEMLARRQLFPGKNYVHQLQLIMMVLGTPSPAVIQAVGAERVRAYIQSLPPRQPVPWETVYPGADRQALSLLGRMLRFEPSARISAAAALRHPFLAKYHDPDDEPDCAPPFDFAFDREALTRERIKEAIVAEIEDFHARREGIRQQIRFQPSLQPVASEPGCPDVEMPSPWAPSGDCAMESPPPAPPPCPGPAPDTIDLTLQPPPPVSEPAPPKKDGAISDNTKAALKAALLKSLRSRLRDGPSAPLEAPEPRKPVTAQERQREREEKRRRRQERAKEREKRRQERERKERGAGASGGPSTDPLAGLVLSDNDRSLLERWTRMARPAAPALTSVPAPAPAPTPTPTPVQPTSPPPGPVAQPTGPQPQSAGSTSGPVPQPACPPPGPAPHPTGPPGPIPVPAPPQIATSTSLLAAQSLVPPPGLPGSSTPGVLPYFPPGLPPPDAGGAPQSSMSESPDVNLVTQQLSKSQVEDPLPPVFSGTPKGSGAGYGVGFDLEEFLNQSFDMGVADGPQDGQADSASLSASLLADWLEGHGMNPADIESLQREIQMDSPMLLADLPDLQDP

[8] = target: Tyrosine-protein kinase BTK (Homo sapiens) (UniProt Q06187); test: Inhibition of BTK (unknown origin) at 10 uM by Ambit Kinomescan binding assay
Sequence of Tyrosine-protein kinase BTK (Homo sapiens) (Q06187 whole entry, canonical isoform): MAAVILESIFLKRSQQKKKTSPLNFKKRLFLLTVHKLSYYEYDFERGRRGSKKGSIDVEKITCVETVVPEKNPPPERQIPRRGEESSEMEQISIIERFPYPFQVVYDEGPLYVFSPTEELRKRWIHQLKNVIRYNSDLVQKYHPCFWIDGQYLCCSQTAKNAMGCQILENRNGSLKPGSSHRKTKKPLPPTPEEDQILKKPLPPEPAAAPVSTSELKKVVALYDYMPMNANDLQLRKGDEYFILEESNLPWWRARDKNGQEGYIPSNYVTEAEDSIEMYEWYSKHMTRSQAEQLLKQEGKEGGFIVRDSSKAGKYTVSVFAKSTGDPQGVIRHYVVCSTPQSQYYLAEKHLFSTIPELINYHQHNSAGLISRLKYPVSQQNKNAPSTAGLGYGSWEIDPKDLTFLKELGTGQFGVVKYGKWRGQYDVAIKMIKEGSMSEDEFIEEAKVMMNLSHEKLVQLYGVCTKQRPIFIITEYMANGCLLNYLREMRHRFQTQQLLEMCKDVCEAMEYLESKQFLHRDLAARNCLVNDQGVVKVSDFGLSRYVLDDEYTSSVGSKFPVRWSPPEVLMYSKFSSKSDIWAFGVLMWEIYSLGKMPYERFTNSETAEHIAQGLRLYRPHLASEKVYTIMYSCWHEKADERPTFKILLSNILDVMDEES

[9] = target: Phosphatidylinositol 4,5-bisphosphate 3-kinase catalytic subunit gamma isoform (Homo sapiens) (UniProt P48736); test: Inhibition of PIK3CG (unknown origin) at 1 uM by Ambit Kinomescan binding assay relative to control; values are per cent of control
[10] = target: T2, Dual specificity mitogen-activated protein kinase kinase 7 (Homo sapiens) (UniProt O14733); test: Inhibition of MKK7 (unknown origin) at 1 uM by Ambit Kinomescan binding assay relative to control
T2 sequence (whole entry): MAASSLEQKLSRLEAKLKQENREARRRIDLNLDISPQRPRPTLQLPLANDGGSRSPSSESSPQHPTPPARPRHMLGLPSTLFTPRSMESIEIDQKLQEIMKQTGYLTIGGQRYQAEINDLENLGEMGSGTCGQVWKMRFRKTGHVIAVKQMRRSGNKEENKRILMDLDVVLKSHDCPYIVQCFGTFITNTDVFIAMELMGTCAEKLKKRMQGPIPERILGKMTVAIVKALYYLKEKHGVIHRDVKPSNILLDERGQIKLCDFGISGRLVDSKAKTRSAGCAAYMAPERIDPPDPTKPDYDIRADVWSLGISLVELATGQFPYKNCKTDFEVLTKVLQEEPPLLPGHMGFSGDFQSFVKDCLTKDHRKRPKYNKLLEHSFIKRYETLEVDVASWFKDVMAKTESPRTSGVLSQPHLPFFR

[11] = target: T3, Serine/threonine-protein kinase D1 (Homo sapiens) (UniProt Q15139); test: Inhibition of PKD1 Lys1 labeling site in human A-375 cells at 5 uM by KiNativ Profiling analysis relative to control; format: cell-based
T3 sequence (whole entry): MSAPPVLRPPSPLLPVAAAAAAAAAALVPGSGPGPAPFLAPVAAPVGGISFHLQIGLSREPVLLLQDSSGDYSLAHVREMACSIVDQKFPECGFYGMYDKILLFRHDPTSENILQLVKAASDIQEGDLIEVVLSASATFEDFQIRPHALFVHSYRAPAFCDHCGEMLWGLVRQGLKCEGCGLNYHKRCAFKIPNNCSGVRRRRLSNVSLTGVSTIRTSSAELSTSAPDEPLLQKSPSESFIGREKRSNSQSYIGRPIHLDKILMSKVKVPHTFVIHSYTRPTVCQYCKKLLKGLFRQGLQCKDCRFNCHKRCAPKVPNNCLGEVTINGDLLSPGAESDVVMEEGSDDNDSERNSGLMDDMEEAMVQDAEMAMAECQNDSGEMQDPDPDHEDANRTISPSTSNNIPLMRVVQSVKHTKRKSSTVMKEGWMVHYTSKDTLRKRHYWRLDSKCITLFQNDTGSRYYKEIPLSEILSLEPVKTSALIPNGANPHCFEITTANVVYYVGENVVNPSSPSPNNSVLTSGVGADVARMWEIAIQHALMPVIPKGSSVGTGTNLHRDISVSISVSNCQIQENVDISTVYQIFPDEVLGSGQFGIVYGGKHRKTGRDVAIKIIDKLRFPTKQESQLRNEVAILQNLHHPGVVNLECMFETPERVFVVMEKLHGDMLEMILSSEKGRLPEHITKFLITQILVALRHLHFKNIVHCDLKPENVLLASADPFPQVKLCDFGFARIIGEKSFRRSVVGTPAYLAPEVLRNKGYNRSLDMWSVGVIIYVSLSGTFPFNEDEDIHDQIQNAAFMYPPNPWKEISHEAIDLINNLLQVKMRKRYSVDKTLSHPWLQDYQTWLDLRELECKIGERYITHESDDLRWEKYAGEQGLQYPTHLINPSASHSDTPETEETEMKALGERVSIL

[12] = target: Insulin receptor (Homo sapiens) (UniProt P06213); test: Inhibition of INSR (unknown origin) at 1 uM by Ambit Kinomescan binding assay relative to control; values are per cent of control
Sequence of Insulin receptor (Homo sapiens) (P06213 28-758 limits assumed): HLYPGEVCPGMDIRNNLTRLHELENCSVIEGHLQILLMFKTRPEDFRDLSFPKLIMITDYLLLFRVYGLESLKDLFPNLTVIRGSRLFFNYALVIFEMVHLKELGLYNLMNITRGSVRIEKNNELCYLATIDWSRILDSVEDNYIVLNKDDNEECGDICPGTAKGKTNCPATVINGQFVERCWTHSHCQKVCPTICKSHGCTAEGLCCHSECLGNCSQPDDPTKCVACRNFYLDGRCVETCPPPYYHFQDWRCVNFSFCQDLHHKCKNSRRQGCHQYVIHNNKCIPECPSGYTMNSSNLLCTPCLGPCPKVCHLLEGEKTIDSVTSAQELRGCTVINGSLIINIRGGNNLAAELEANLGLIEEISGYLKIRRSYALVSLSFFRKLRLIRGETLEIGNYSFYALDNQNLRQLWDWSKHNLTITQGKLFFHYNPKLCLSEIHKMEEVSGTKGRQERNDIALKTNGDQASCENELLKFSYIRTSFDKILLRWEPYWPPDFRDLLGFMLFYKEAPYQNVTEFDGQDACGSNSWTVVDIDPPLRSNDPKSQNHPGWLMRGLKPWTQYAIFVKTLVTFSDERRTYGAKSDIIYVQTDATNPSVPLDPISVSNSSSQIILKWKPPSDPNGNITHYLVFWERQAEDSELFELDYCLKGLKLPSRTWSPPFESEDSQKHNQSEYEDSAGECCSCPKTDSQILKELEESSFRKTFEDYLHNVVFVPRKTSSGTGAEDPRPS
Sequence of Insulin receptor (Homo sapiens) (P06213 763-1382 limits assumed): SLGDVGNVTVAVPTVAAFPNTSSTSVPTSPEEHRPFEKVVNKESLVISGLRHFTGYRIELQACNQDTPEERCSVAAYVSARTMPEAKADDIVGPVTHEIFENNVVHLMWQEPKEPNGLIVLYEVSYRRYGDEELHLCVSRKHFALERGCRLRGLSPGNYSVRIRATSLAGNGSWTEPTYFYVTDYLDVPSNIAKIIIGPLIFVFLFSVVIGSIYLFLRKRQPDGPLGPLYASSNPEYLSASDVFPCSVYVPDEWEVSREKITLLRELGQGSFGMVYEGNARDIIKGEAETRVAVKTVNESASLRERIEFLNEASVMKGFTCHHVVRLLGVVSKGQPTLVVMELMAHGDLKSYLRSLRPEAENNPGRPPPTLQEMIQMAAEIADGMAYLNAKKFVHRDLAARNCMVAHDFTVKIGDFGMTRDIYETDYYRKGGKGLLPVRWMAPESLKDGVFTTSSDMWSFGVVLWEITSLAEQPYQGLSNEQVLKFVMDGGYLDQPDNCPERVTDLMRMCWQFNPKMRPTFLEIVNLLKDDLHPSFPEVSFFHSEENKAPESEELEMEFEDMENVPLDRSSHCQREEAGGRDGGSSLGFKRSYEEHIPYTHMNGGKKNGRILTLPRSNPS

SMILES: CNc1cc(Oc2cc(C(=O)Nc3cc(N4CCN(C)CC4)cc(C(F)(F)F)c3)ccc2C)ncn1
- inhibition [1]: 5.3%
- inhibition [2]: -8%
- inhibition [3]: -1%

SMILES: CCN1CCN(Cc2ccc(NC(=O)c3ccc(C)c(Oc4ccnc5[nH]ccc45)c3)cc2C(F)(F)F)CC1
- inhibition [4]: 4.1%
- inhibition [5]: 9.1%
- inhibition [6]: inactive
- inhibition [7]: 12.4%
- inhibition [8]: inactive

SMILES: CCN1CCN(Cc2ccc(NC(=O)c3ccc(C)c(/C=C/c4cnc5[nH]ccc5c4OC)c3)cc2C(F)(F)F)CC1
- residual activity [9]: 100%
- inhibition [10]: 39%
- inhibition [11]: -9.9%
- residual activity [12]: 78%

Source: ChEMBL document CHEMBL5696442, “Discovery of type II inhibitors of TGFβ-activated kinase 1 (TAK1) and mitogen-activated protein kinase kinase kinase kinase 2 (MAP4K2)” (J Med Chem, 2015)
